# Ends that are not written are not given here.
# Assays:
# [1] = Cargo release from nanogels by dialysis into 37° C. PBS; type: physicochemical; conditions: from N:P 10 nanogel carrier
# Experimental: Loaded BNCs in DI water were injected into 300 kDa MWCO dialysis tubing. The tubing was submerged in a 30× (by volume) bath of PBS. At predetermined time points, multiple samples (n≥3) were collected from multiple locations throughout the bath. These samples were pooled and release was characterized in the same method used for assessing initial loading. Before each measurement, volume was adjusted to that of the initial bath to ensure concentration consistency.
# Next, physiologic release of the encapsulated cargo was assessed by loading each nanogel formulation into a dialysis cassette and suspending it in a release media of 37° C. PBS. The concentration of loaded drug or GFP liberated to the dialysis media was then monitored as a function of time via UV-Vis or fluorescence spectroscopy, respectively. […] The majority of encapsulated protein (>75%) was retained within the nanogel carrier for the first 24 hours, followed by a rapid release phase that occurred between 24 and 72 hours.
# [2] = tested on: dormant persister cells (MTb); assay: KKL-35 viability of non-replicating MTb, Wayne model; type: cell-based, Mycobacterium tuberculosis; conditions: 3 days, FIG. 5B
# growing MTb = assay: KKL-35 viability of growing MTb cultures, plating assay; type: cell-based, Mycobacterium tuberculosis; conditions: FIG. 5A
# physchem = conditions: water
# [3] = tested on: panel of gram-negative and gram-positive bacterial pathogens; assay: Antibacterial activity against the whole panel; type: cell-based; conditions: four different gram-negative pathogens; highest concentration tested
# Experimental: (§1) 2× Dilutions of treatments in broth were plated into a U-bottom 96 well plate. Overnight cultures of Pseudomonas aeruginosa, Escherichia coli, Acinetobacter baumannii, Salmonella enterica and Staphylococcus aureus were incubated in cation adjusted Mueller-Hinton broth as advised by CLSI. Bacteria were diluted to an OD600 of 0.002 and plated in a 1:1 volume ratio with the treatments. These cultures were incubated overnight and MIC values were assessed by visual evaluation of growth inhibition when compared to untreated samples.
# Next, the antibacterial activity of VAN-loaded nanogels were evaluated against a panel of gram-negative and gram-positive bacterial pathogens (Table 5). It is important to note that clinical use of VAN is generally excluded to gram-positive infections as most gram-negative pathogens are innately resistant to the drug. This is due to the thick outer membrane of gram-negative bacteria which prevents the large glycopeptide drug from diffusing into the cell wall and reaching its enzymatic target.
# S. aureus (+) = assay: MIC of VAN, NGVAN, NG (broth dilution); type: cell-based, Staphylococcus aureus; conditions: S. aureus vs four gram-negative pathogens
# Experimental: as §1
# A. baumannii (−) = assay: MIC of VAN, NGVAN, NG (broth dilution); type: cell-based; conditions: Acinetobacter baumannii, read-out: MIC of VAN
# Experimental: as §1
# E. coli (−) = assay: MIC of VAN, NGVAN, NG (broth dilution); type: cell-based; conditions: Escherichia coli, drug or equivalent concentration of drug loaded into nanogels
# Experimental: as §1
# S. enterica (−) = assay: MIC of VAN, NGVAN, NG (broth dilution); type: cell-based; conditions: Salmonella enterica, drug or equivalent concentration of drug loaded into nanogels
# Experimental: as §1
# P. aeruginosa (−) = assay: MIC of VAN, NGVAN, NG (broth dilution); type: cell-based; conditions: Pseudomonas aeruginosa, read-out: MIC of VAN
# Experimental: as §1
# M. tuberculosis [4] = conditions: Gram +/−
# B. anthrax = conditions: Gram +
# A. baumannii = assay: MIC of AMPs; type: cell-based; conditions: Gram −
# S. enterica = assay: MIC of AMPs; type: cell-based; conditions: Gram −
# P. aeruginosa = assay: MIC of AMPs; type: cell-based; conditions: Gram −
# MS S. aureus = assay: MIC of AMPs; type: cell-based; conditions: Gram +
# M. smegmatis [5] = assay: MIC of AMPs; type: cell-based; conditions: Gram +/−
# MR S. aureus = conditions: Gram +
# H. influenzae = assay: MIC of AMPs; type: cell-based; conditions: Gram −
# M. tuberculosis [6] = conditions: minimum concentration inhibiting 90% culture growth; cited from earlier work
# [7] = tested on: THP-1 human macrophage control cell line; conditions: selectivity index at IC90, MTb over THP-1 human macrophage control cell line; cited from earlier work
# M. smegmatis [8] = conditions: minimum concentration inhibiting 90% culture growth; cited from earlier work
Molecule,MIC (M. tuberculosis [4]),MIC (B. anthrax),MIC (A. baumannii),MIC (S. enterica),MIC (P. aeruginosa),MIC (MS S. aureus),MIC (M. smegmatis [5]),MIC (MR S. aureus),MIC (H. influenzae),IC90 (M. tuberculosis [6]),SI90 [7],IC90 (M. smegmatis [8]),also measured
"COc1cccc2c1C(=O)c1c(O)c3c(c(O)c1C2=O)C[C@@](O)(C(=O)CO)C[C@@H]3O[C@H]1C[C@H](N)[C@H](O)[C@H](C)O1 [DOX, Doxorubicin]",,,,,,,,,,,,,time to complete release [1]: 48 h; zero-order release rate [1]: ~4 %/hour
"O=C(Nc1nnc(-c2ccc(F)cc2)o1)c1ccc(Cl)cc1 [KKL-35, 4-chloro-N-(5-(4-fluorophenyl)-1,3,4-oxadiazol-2-yl)benzamide]",,,,,,,,,,,,,IC towards human HeLa cells (human HeLa cells): > 500 µg/mL; IC towards dormant persister cells [2]: < 1.6 µg/mL; IC towards growing MTb (growing MTb): < 1.6 µg/mL; solubility (physchem): 500 µg/mL
"CN[C@H](CC(C)C)C(=O)N[C@H]1C(=O)N[C@@H](CC(N)=O)C(=O)N[C@H]2C(=O)N[C@H]3C(=O)N[C@H](C(=O)N[C@H](C(=O)O)c4cc(O)cc(O)c4-c4cc3ccc4O)[C@H](O)c3ccc(c(Cl)c3)Oc3cc2cc(c3O[C@@H]2O[C@H](CO)[C@@H](O)[C@H](O)[C@H]2O[C@H]2C[C@](C)(N)[C@H](O)[C@H](C)O2)Oc2ccc(cc2Cl)[C@H]1O [VAN, Vancomycin]",,,,,,,,,,,,,concentration giving inhibition of bacterial growth [3]: 144 µg/mL; time to 90% drug release ([1]; first order kinetics): ≤ 4 h; times more effective in killing S. aureus than gram-negative pathogens (S. aureus (+)): > 30 times; MIC (A. baumannii (−)): 144 µg/mL; MIC (E. coli (−)): 144 µg/mL; MIC (S. enterica (−)): 144 µg/mL; MIC (P. aeruginosa (−)): 144 µg/mL
H-KRWHWWRRHWVVW-NH2 [SMAS-1],3 µM,>80 µM,50 µM,80 µM,50 µM,>80 µM,5 µM,>80 µM,80 µM,,,,
H-WKWLKKWIK-NH2 [Entry 1],20 µM,10 µM,25 µM,40 µM,10 µM,>80 µM,20 µM,>80 µM,80 µM,1.1 µM,21.3,1.9 µM,
"ILRWKWRWWRWRR-NH2 [Entry 2, cationic antimycobacterial peptide, amidated C-terminus]",,,,,,,,,,,21.3,2.4 µM,
KRWWKWWRR-NH2 [Entry 3],10 µM,80 µM,80 µM,80 µM,20 µM,80 µM,20 µM,80 µM,80 µM,3.1 µM,51.2,4.9 µM,
RRWWRWVVW-NH2 [Entry 4],20 µM,20 µM,10 µM,80 µM,80 µM,20 µM,20 µM,20 µM,40 µM,5.6 µM,32.0,11.4 µM,
